Reference: article PMC8881610 (Nature Communications, 2022)
Where a chain is given by its changes, count along the chain named.

What was measured:
Assay in all cases: cAMP accumulation assay (LANCE Ultra cAMP kit), GIPR WT, mutant or modified constructs
Assay type in all cases: cell-based
Parameters in all cases: acylated tirzepatide to the full-length or modified; Flag; expressed in transfected cells; host or cells: HEK293T
GIPR [1] = target: T1, GIPR (Homo sapiens, UniProt P48546, E135A); conditions: GIPR E135A, HEK293T
T1 sequence (P48546 22-466 E135A): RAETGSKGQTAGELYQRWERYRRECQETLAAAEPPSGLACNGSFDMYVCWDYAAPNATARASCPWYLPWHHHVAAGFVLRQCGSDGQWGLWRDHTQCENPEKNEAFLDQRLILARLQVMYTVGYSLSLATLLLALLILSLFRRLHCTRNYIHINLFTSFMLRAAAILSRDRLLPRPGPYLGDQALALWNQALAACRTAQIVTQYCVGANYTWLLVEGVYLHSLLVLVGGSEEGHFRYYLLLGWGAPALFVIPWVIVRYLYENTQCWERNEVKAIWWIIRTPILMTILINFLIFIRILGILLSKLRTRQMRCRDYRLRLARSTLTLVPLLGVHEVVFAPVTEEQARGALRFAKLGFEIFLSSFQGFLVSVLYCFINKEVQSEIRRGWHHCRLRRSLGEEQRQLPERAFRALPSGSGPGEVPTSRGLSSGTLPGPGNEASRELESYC
Procedure, shortened: (§1)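 HEK293T cells transiently transfected with human GIPR WT or mutant constructs (pcDNA3.1), used after 24 h. The cells were stimulated with peptide agonists for 40 min at RT in HBSS with 5 mM HEPES, 0.1% BSA or casein, and 0.5 mM IBMX. cAMP was read by LANCE Ultra TR-FRET (Eu-cAMP tracer/ULight anti-cAMP, 1 h RT, 620/650 nm).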

GIPR [2] = target: T2, GIPR (Homo sapiens, UniProt P48546, W209A); conditions: GIPR W209A, HEK293T
T2 sequence (P48546 22-466 W209A): T1 sequence (P48546 22-466 E135A) with A114E, W188A
Procedure, shortened: as §1

GIPR [3] = target: T3, GIPR (Homo sapiens, UniProt P48546, Y141A); conditions: GIPR Y141A, HEK293T
T3 sequence (P48546 22-466 Y141A): T1 sequence (P48546 22-466 E135A) with A114E, Y120A
Procedure, shortened: as §1

[4] = read-out: cAMP pEC50 (converted)

Structure (SMILES): CCCCCCCCCCCCCCCC(=O)N[C@@H](CCC(=O)NCCCC[C@H](NC(=O)[C@H](CC(=O)O)NC(=O)[C@H](CO)NC(=O)[C@@H](NC(=O)[C@H](Cc1ccccc1)NC(=O)[C@@H](NC(=O)CNC(=O)[C@H](CCC(N)=O)NC(=O)C(C)(C)NC(=O)[C@@H](N)Cc1c[nH]cn1)[C@@H](C)O)[C@@H](C)O)C(=O)N[C@@H](CO)C(=O)N[C@@H](CCCCN)C(=O)N[C@@H](Cc1ccc(O)cc1)C(=O)N[C@@H](CC(C)C)C(=O)N[C@@H](CC(=O)O)C(=O)N[C@@H](CCC(=O)O)C(=O)N[C@@H](CCCNC(=N)N)C(=O)N[C@@H](C)C(=O)N[C@@H](C)C(=O)N[C@@H](CCC(N)=O)C(=O)N[C@@H](CC(=O)O)C(=O)N[C@@H](Cc1ccccc1)C(=O)N[C@H](C(=O)N[C@@H](CCC(N)=O)C(=O)N[C@@H](Cc1c[nH]c2ccccc12)C(=O)N[C@@H](CC(C)C)C(=O)N[C@@H](CC(C)C)C(=O)N[C@@H](CC(=O)O)C(=O)NCC(=O)NCC(=O)N1CCC[C@H]1C(=O)N[C@@H](CO)C(=O)N[C@@H](CO)C(=O)NCC(=O)N[C@@H](C)C(=O)N1CCC[C@H]1C(=O)N1CCC[C@H]1C(=O)N1CCC[C@H]1C(=O)N[C@@H](CO)C(N)=O)C(C)C)C(=O)O [Peptide 20]
- EC50 (GIPR [1]; [4]): 0.0427 nM
- Emax (GIPR [1]; HEK-293T): 100 ± 1.44%
- EC50 (GIPR [2]; [4]): 0.00363 nM
- Emax (GIPR [2]; HEK-293T): 100 ± 1.45%
- EC50 (GIPR [3]; [4]): 3.72 nM
- Emax (GIPR [3]; HEK-293T): 75.1 ± 1.79%
